# Measurements reported in publication PMC5748279, “Novel Antitubercular 6-Dialkylaminopyrimidine Carboxamides from Phenotypic Whole-Cell High Throughput Screening of a SoftFocus Library: Structure–Activity Relationship and Target Identification Studies” (Journal of Medicinal Chemistry, 2017).
# Like-named read-outs stand apart in the source and are kept apart here.
# Assays:
# [1] = Caseum binding using surrogate caseum
# mice = experiment: Toxicity observed in mice on oral dosing; type: in vivo; conditions: higher doses
# [2] = type: in vitro ADME
# Protocol: and ultracentrifuged for 4 hours (42000 rpm, 37 °C, Beckman Optima L,80XP). Analyte concentration of all compounds and sample types were determined by means of LC,MS/MS (Agilent Rapid Resolution HPLC, AB SCIEX 4000 QTRAP MS).
# 4.4) Lipophilicity (LogD7.4)
# The lipophilicity assay was performed in triplicate using a shake,flask procedure. 10 mM stock solutions of each test compound were used to spike (100 µM) a 1:1 mixture of phosphate buffer (pH 7.4) and n,octanol. The solutions were shaken vigorously (1500 rpm) on an orbital shaker for 3 hours at room temperature. Thereafter the samples were centrifuged in order to fully separate the two immiscible fluids. The samples were analysed by HPLC,DAD (Agilent 1200 Rapid Resolution HPLC with a diode array detector) and the amount of compound in the buffer and n, octanol were used to determine the partition coefficient, LogD7.4.15
# 4.5) Parallel Artificial Membrane Permeability Assay (PAMPA):
# The PAMPA assay was performed in triplicate in 96,well MultiScreen Filter plates (Millipore, 0.4 µM PCTE Membrane). Membrane filters were pre,coated with 5% hexadecane in hexane and allowed to dry prior to the assay. Membrane integrity marker, Lucifer yellow was added to the apical wells of the pre,coated MultiScreen plate donor/drug solutions containing test compound.
# Phosphate buffer (pH7.4) was added to the 96,well acceptor plate. 10 mM test compound was used to spike (1 µM) the donor buffer at physiologically relevant pH's (pH 4, 6.5 and 8), the donor plate slotted into the acceptor plate and incubated (4 hours at room temperature) with gentle shaking (40,50 rpm). Following the incubation, sample from the acceptor wells and theoretical equilibrium wells were transferred to the analysis plate and matrix matched with blank donor buffer. Acetonitrile containing internal standard (carbamazepine, 0.0236 µg/mL) was added to all samples and they were analysed by LC,MS/MS (Agilent Rapid Resolution HPLC, AB SCIEX 4500 MS). The normalised (analyte/internal) peak areas were used to calculate the apparent permeability (Papp). Membrane integrity was assessed by calculating the Papp of Lucifer Yellow […]
# chemosensitivity. […]. Thus only viable cells […]
# formazan. Formazan crystals are dissolved in DMSO. The test samples were tested in triplicate on […]
# experiment. […] Emetine was used […]
# as the reference drug in all experiments. The initial concentration of emetine was 100 µg/mL, […]
# lowest being 0.001 µg/mL. […] The […]
# (§1) the cell viability (data not shown).
# GraphPad Prism v.4 software. […]
# expressing the full length hERG channel. Single cell ionic currents were measured in the […]
# physchem [3] = type: physicochemical
# Protocol: (§2) The kinetic solubility assay was performed using a miniaturised shake flask method. 10 mM stock […]
# (§3) DMSO, and to spike (1:50) duplicate aqueous samples of FaSSIF (simulating fasting state biorelevant media, pH 6.5), with a final DMSO concentration of 2%. After shaking for 2 hours at 25 °C, the solutions were filtered and analysed by means of HPLC,DAD (Agilent 1200 Rapid Resolution HPLC with a diode array detector). Best fit calibration curves were constructed using the calibration standards, which were used to determine the aqueous samples’ solubility.13
# (§4) 4.2) Microsomal stability
# (§5) The metabolic stability assay was performed in duplicate in a 96,well micro titre plate. The test compounds (0.1 µM) were incubated individually in mouse, rat and pooled human liver […]
# (§6) the cofactor NADPH (1 mM). Reactions were quenched by adding 300 µL of ice cold acetonitrile containing internal standard (carbamazepine, 0.0236 µg/mL). Test compounds in the supernatant were analysed by means of LC,MS/MS (Agilent Rapid Resolution HPLC, AB SCIEX 4000 QTRAP MS) for the disappearance of parent compound. Metabolite searches were not conducted during the metabolic stability assay.14
# (§7) 4.3) Plasma protein binding (PPB) assay
# The plasma protein binding assay was performed in a 96,well micro titre plate with pooled human plasma, spiked with test compound (5 µM). An aliquot was immediately removed and quenched using ice cold acetonitrile containing internal standard (carbamazepine, 0.0236 µg/mL), and placed in the freezer. This served as the total concentration sample. After pre,incubation (37 °C for 1 hour) duplicate aliquots of the spiked plasma were transferred to ultra,centrifugation tubes, […]
# in vivo = conditions: male, C57/BL6, mouse
# in vitro [4] = type: in vitro ADME; conditions: human, plasma; PPB assay; read-out: free fraction in human plasma
# Protocol: as §2, §3, §4
# The metabolic stability assay was performed in duplicate in a 96,well micro titre plate. […]
# the cofactor NADPH (1 mM). […] Test compounds in the supernatant were analysed by means of LC,MS/MS (Agilent Rapid Resolution HPLC, AB SCIEX 4000 QTRAP MS) for the disappearance of parent compound. […]
# and ultracentrifuged for 4 hours (42000 rpm, 37 °C, Beckman Optima L,80XP). Analyte concentration of all compounds and sample types were determined by means of LC,MS/MS (Agilent Rapid Resolution HPLC, AB SCIEX 4000 QTRAP MS). […]
# The lipophilicity assay was performed in triplicate using a shake,flask procedure. […] The samples were analysed by HPLC,DAD (Agilent 1200 Rapid Resolution HPLC with a diode array detector) and the amount of compound in the buffer and n, octanol were used to determine the partition coefficient, LogD7.4.15 […]
# physchem [5] = conditions: sheet table;; kinetic solubility, pH 7.4; aqueous buffer pH 7.4; Kinetic solubility at pH 7.4; read-out: Solubility (æM)
# Protocol: as §2, §3, §4, §5, §6, §7
# The plasma protein binding assay was performed in a 96,well micro titre plate with pooled human plasma, spiked with test compound (5 µM). […]
# [6] = test system: Mycobacterium tuberculosis (H37RvMa); experiment: microbe, parasite or virus in culture; design: MIC99 by standard broth microdilution against M. tuberculosis H37Rv; conditions: read-out: MIC99 7H9/ADC (æM)
# in vitro [7] = conditions: african green monkey; sheet table;; IC50 on Vero cells, MTT; read-out: Cytotoxicity (æM)
# Protocol: chemosensitivity. […]. Thus only viable cells
# formazan. Formazan crystals are dissolved in DMSO. The test samples were tested in triplicate on
# experiment. […] Emetine was used
# as the reference drug in all experiments. The initial concentration of emetine was 100 µg/mL,
# lowest being 0.001 µg/mL. […] The
# as §1
# GraphPad Prism v.4 software.
# Electrophysiologi Table 2 SAR on the Central Core a Kinetic solubility at pH 7.4. b IC50 on Vero cell lines.
# [8] = test system: Mycobacterium tuberculosis (H37RvMa); experiment: microbe, parasite or virus in culture; design: MIC99 by standard broth microdilution against M. tuberculosis H37Rv; conditions: sheet table;, MIC99, GAST/Fe medium, read-out: MIC99 GAST/Fe (æM)
# BCG_3193 (Rv3169) = BCG_3193 (Rv3169) (Mycobacterium bovis BCG, UniProt A0A1R3Y3B6); experiment: biochemical; type: binding
# [9] = test system: Mycobacterium bovis BCG extract proteins; experiment: biochemical; type: binding
# [10] = target: Mycobacterium bovis BCG extract proteins (Mycobacterium bovis BCG, UniProt A0A1R3Y5H4); experiment: biochemical; type: binding
# [11] = target: Mycobacterium bovis BCG extract proteins (Mycobacterium bovis BCG, UniProt A0A0H3M9Z0); experiment: biochemical; type: binding
# [12] = target: Mycobacterium bovis BCG extract proteins (Mycobacterium bovis BCG, UniProt A0A1R3Y5J1); experiment: biochemical; type: binding
# [13] = target: Mycobacterium bovis BCG extract proteins (Mycobacterium bovis, UniProt A0A1R3Y5J0); experiment: biochemical; type: binding
# [14] = target: Mycobacterium bovis BCG extract proteins (Mycobacterium bovis BCG, UniProt P0A4Z9); experiment: biochemical; type: binding
# [15] = target: Mycobacterium bovis BCG extract proteins (Mycobacterium bovis BCG, UniProt A0A1R3Y5N8); experiment: biochemical; type: binding
# [16] = target: Mycobacterium bovis BCG extract proteins (Mycobacterium bovis BCG, UniProt A1KLS7); experiment: biochemical; type: binding
# [17] = target: Mycobacterium bovis BCG extract proteins (Mycobacterium bovis BCG, UniProt A0A1R3Y6U4); experiment: biochemical; type: binding
# [18] = target: Mycobacterium bovis BCG extract proteins (Mycobacterium bovis BCG, UniProt O69687); experiment: biochemical; type: binding
# [19] = target: Mycobacterium bovis BCG extract proteins (Mycobacterium bovis BCG, UniProt A1KQG9); experiment: biochemical; type: binding
# [20] = target: Mycobacterium bovis BCG extract proteins (Mycobacterium bovis BCG, UniProt P9WKC7); experiment: biochemical; type: binding
# [21] = target: Mycobacterium bovis BCG extract proteins (Mycobacterium bovis BCG, UniProt A0A1R3Y5K6); experiment: biochemical; type: binding
# [22] = target: Mycobacterium bovis BCG extract proteins (Mycobacterium bovis BCG, UniProt P9WGQ7); experiment: biochemical; type: binding
# BCG_3827 (Rv3768) = type: binding, Mycobacterium bovis BCG
structure (smiles),measurement,setting,value
"CN(Cc1ccc(C(F)(F)F)nc1)c1cc(C(=O)Nc2nncs2)ncn1 [Compound 52, 6-(Methyl((6-(trifluoromethyl)pyridin-3-yl)methyl)amino)-N-(1,3,4-thiadiazol-2-yl)pyrimidine-4-carboxamide]",caseum distribution unbound,[1],3.6%
same,toxicity to mice,mice,toxic to mice when dosed orally above 50 mg/kg
same,PAMPA log Papp,[2],–3.9
same,solubility at 2 h,"physchem [3]; pH 6.5, fasted-state simulated intestinal fluid, read-out: FassiF solubility at pH 6.5",> 100 µM
same,solubility kinetic at 2 h,"physchem [3]; pH 7.4, pH 7.4",> 100 µM
same,AUC(0-inf) at 24 h,"in vivo; iv, 5 mg/kg",35.1 µM·h
same,clearance at 24 h,"in vivo; iv, 5 mg/kg",6.6 mL/min/kg
same,AUC(0-inf) at 24 h,"in vivo; po, 20 mg/kg",93.6 µM·h
same,half-life,"in vivo; po, 20 mg/kg",3 h
same,"fraction unbound at 4 h, 5 µM",in vitro [4],≤ 0.3
CC(=O)N1CCN(c2ccc(NC(=O)c3cc(N(C)Cc4ccc(C(F)(F)F)nc4)ncn3)cn2)CC1 [compound 44],solubility at 2 h,physchem [5],< 5 µM
same,MIC99,[6],4.7 µM
same,CC50,in vitro [7],> 50 µM
same,MIC99,[8],2.3 µM
"O=C(Nc1ccccc1)c1ccc(=O)n(Cc2ccc(F)cc2)c1 [Compound 25, 1-(4-Fluorobenzyl)-6-oxo-N-phenyl-1,6-dihydropyridine-3-carboxamide]",binding of BCG_3193 to the compound beads in presence of free compound,BCG_3193 (Rv3169),no effect
same,IC50,[9],≥ 30 µM
same,pIC50,[9],≤ 4.52
same,IC50,[10],≥ 30 µM
same,pIC50,[10],≤ 4.52
same,IC50,[11],≥ 30 µM
same,pIC50,[11],≤ 4.52
same,IC50,[12],≥ 30 µM
same,pIC50,[12],≤ 4.52
same,IC50,[13]; IC50,≥ 30 µM
same,IC50,[13]; pIC50,≥ 30.2 µM
same,IC50,[14],≥ 30 µM
same,pIC50,[14],≤ 4.52
same,IC50,[15]; IC50,≥ 30 µM
same,IC50,[15]; pIC50,≥ 30.2 µM
same,IC50,[16],≥ 30 µM
same,pIC50,[16],≤ 4.52
same,IC50,[17]; IC50,≥ 30 µM
same,IC50,[17]; pIC50,≥ 30.2 µM
same,IC50,[18],≥ 30 µM
same,pIC50,[18],≤ 4.52
same,IC50,[19],≥ 30 µM
same,pIC50,[19],≤ 4.52
same,IC50,[20]; IC50,≥ 30 µM
same,IC50,[20]; pIC50,≥ 30.2 µM
same,IC50,[21]; IC50,≥ 30 µM
same,IC50,[21]; pIC50,≥ 30.2 µM
same,IC50,[22]; IC50,≥ 30 µM
same,IC50,[22]; pIC50,≥ 30.2 µM
same,IC50,BCG_3827 (Rv3768),≥ 30 µM
same,binding of BCG_3827 to the compound beads in presence of free compound,BCG_3827 (Rv3768),no effect
same,pIC50,BCG_3827 (Rv3768),≤ 4.52
same,relative abundance 10: Compound competition 0.029 µM 25,BCG_3827 (Rv3768); 0.029 µM,1.06
same,relative abundance 9: Compound competition 0.117 µM 25,BCG_3827 (Rv3768); 0.117 µM,0.70
same,relative abundance 8: Compound competition 0.47 µM 25,BCG_3827 (Rv3768); 0.47 µM,1.39
same,relative abundance 7: Compound competition 1.88 µM 25,BCG_3827 (Rv3768); 1.88 µM,1.36
same,relative abundance 6: Compound competition 7.5 µM 25,BCG_3827 (Rv3768); 7.5 µM,1.52
same,relative abundance 5: Compound competition 30 µM 25,BCG_3827 (Rv3768); 30 µM,1.12
[C-]#[N+]c1ccc(CN(C)c2cc(C(=O)Nc3ccccc3)ncn2)cc1 [compound 16],solubility at 2 h,physchem [5],< 5 µM
same,MIC99,[6],> 50 µM
